For test [1], the target named is T1, Serotonin 1A (5-HT1A) receptor (Rattus norvegicus, UniProt P19327).
T1 construct: The cortex tissue were homogenized in 30 volumes of ice-cold 50 mM Tris-HCl buffer; from tissue; host or cells: Sprague-Dawley rat brain cortex membranes
T1 sequence (P19327 1-422): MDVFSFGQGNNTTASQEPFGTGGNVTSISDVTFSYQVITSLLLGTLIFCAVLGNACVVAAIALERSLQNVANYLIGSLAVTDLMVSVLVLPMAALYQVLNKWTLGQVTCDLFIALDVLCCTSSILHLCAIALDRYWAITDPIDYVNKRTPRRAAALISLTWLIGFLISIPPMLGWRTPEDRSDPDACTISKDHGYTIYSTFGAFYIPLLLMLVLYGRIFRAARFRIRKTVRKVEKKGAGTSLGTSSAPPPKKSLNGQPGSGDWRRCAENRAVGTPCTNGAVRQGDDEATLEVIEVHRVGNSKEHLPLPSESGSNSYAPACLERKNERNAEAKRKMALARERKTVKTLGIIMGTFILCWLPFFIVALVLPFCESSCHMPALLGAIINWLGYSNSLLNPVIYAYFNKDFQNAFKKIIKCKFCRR
Put plainly: Serotonin 1A (5-HT1A) receptor inhibition assay, [3H]8-OH-DPAT binding to rat cortex membranes. More on the design: species or system Sprague-Dawley (SD) rats. As to conditions: 10 nM test compound; 0.92 nM [3H]8-OH-DPAT; rat cortex homogenate; 60 min at 25° C. The method, then: The method to test the ability of compounds to inhibit serotonin 1A(5-HT1A) receptors was using Hall. et al., J Neuro Chem., 1985, 44, p 1685-1696 with modification.
The Sprague-Dawley (SD) rats were killed by decapitation and their brains rapidly removed at 4° C. The cortex tissue were homogenized in 30 volumes of ice-cold 50 mM Tris-HCl buffer (pH7.4) using an ultra-turrax T8 and centrifuged at 48,000 g for 20 min. The supernatant was discarded and the pellet washed twice by resuspension in 20 volumes Tris-HCl and centrifugation, homogenized in 20 volumes Tris-HCl, and incubated at 37° C. for 10 min. Membranes were than collected by centrifugation and washed twice before final resuspension in 10 volumes of 50 mM Tris-HCl, pH7.4.
For binding assays, the incubation medium consisted of 162.5 ug of tissue homogenate, 0.92 nM of [3H]8-OH-DPAT and vehicle or 10 uM of 5-HT or 10 nM of test compounds per well. 5-HT and test compounds were dissolved in distilled water and incubation medium was 50 mM Tris(pH7.4 at room temperature). The assay plates (96 well) were incubated for 60 min at 25° C. The reaction was terminated by rapid filtration using a Tomtec harvester, through GF/C glassfibre filter with 5 times washes of Tris buffer. The radioactivity retained on the filters was counted by scintillation spectroscopy (MicroBeta TriLux, Wallac). The tests were triplicates. Percent inhibition was calculated as below equation.
Total binding is the value of vehicle treated group and specific binding is the values that deduct non-specific binding (i.e. the value of non-specific ligand, 5-HT).

Test [2] relates to mice. The test is described as follows: Tail Suspension Test in Mice (TST). Format: in vivo. As to conditions: reduction in immobility vs control group, po; for inhibition in vivo at 1 mg/kg: Mus musculus; for % reduction: 30 mg/kg. An excerpt:
Tail Suspension Test in mice is the well-known animal model to determine antidepressant efficacy of compounds by checking escaping behavior and immobility time of mice. Mice treated with antidepressant drug show escaping behavior continuously comparing with control group.
The mice were mainly treated orally with the test compound dissolved in 30% PEG400 or with only 30% PEG400 as control. Tail of mouse is suspended to the rod of TST equipment and end of tail is fixed with sticky tape. Suspended mouse is incubated during 2 min for training and adaptation and after following 2 min, observe escaping behavior and check immobility time for 4 min. The potent ability of the compounds was determined as percent value of reduction in immobility comparing to control group as 100% baseline.

Test [3] deals with mice. The test is described as follows: Anti-Marble Burying Behavior Test in Mice. Format: in vivo. Conditions: Mus musculus, reduction in number of marbles buried, ip. The text has this: Marble burying was developed and validated as a pre-clinical assay of potential anxiolytic activity (Andrews and Broekkamp (1993). Procedures to Identify Anxiolytic or Anxiogenic agents. In Behavioural Neuroscience, ed. A Sahgal, pp. 37-54. IRL Press, Oxford). The marble burying test places a naive mouse into a novel environment containing 25 marbles (arranged on top of a sawdust surface). A reduction in the number of marbles buried by the mouse was hypothesized to be an anxiolytic-like effect.

Each structure is given as a SMILES string. Structures can show the parent of a compound that is named as a salt.

Consider `Clc1cccc(N2CCN(CCCCOc3ccc(CN4CCOCC4)cc3)CC2)c1Cl` [Example 40, 4-(4-{4-[4-(2,3-Dichloro-phenyl)-piperazin-1-yl]-butoxy}-benzyl)-morpholine], for which, in test [1], the inhibition (in general, the relative decrease from the control value, in per cent) at 0.01 µM was 45.6%. For the same molecule, in the test on mice [2], 1 mg/kg produced 10.6% inhibition in vivo.
For the molecule `COc1ccccc1N1CCN(CCCCOc2ccc(CCn3ccnc3)cc2)CC1` [Example 47, 1-{4-[4-(2-imidazol-1-yl-ethyl)-phenoxy]-butyl}-4-(2-methoxy-phenyl)-piperazine], the inhibition at 0.01 µM in test [1] came to 70%. In the test on mice [3], the inhibition in vivo (usually the change of the read-out against control, counted positive when it falls) at 3 mg/kg was determined as 39.3%.
The molecule `COc1ccccc1N1CCN(CCCCOc2ccc(CCn3ccnn3)cc2)CC1` [Example 50, 1-(2-methoxy-phenyl)-4-{4-[4-(2-[1,2,3]triazol-1-yl-ethyl)-phenoxy]-butyl}-piperazine] displayed an inhibition at 0.01 µM in test [1] of 51%. In the test with mice [3], this molecule yielded an inhibition in vivo at 7.5 mg/kg of 96.8%. For the same molecule, the inhibition in vivo at 1 mg/kg in the test with mice [2] turned out to be 46.9%.
In test [1], `COc1ccccc1N1CCN(CCCCOc2ccc(CN(C)C)cc2)CC1` [Example 19, (4-{4-[4-(2-methoxy-phenyl)-piperazin-1-yl]-butoxy}-benzyl)-dimethyl-amine dihydrochloride] gave an inhibition at 0.01 µM of 59.6%. The same molecule registered an inhibition in vivo at 7.5 mg/kg in the test on mice [3] of 50.8%. Further, in the test on mice [2], 1 mg/kg produced 50.6% inhibition in vivo.
The matching figures for `COc1ccccc1N1CCN(CCCCOc2cccc(Cn3ccnc3)c2)CC1` [Example 5, 1-[4-(3-imidazol-1-ylmethyl-phenoxy)-butyl]-4-(2-methoxy-phenyl)-piperazine-hydrochloride]: 50.7%, 60.3% and 21.2%.
The molecule `CN(C)Cc1ccc(OCCCCN2CCN(c3ccccc3Cl)CC2)cc1` [Example 33, (4-{4-[4-(2-Chloro-phenyl)-piperazin-1-yl]-butoxy}-benzyl)-dimethyl-amine] displayed an inhibition at 0.01 µM in test [1] of 53.7%. In the test with mice [2], this molecule returned an inhibition in vivo at 1 mg/kg of 26.8%.
Molecule `COc1ccccc1N1CCN(CCCCOc2ccc(CN3CCOCC3)cc2)CC1` [Example 32, 4-(4-{4-[4-(2-methoxy-phenyl)-piperazin-1-yl]-butoxy}-benzyl)-morpholine] yielded an inhibition in vivo at 7.5 mg/kg in the test with mice [3] of 27.8%.
For `COc1ccccc1N1CCN(CCCCOc2cccc(Cn3cnnn3)c2)CC1` [Example 7, 1-(2-methoxy-phenyl)-4-[4-(3-tetrazol-1-ylmethyl-phenoxy)-butyl]-piperazine hydrochloride], in test [1], the inhibition at 0.01 µM was determined as 78.4%. Besides, the inhibition in vivo at 7.5 mg/kg in the test with mice [3] came to 61.1%. The molecule further registered an inhibition in vivo at 1 mg/kg with mice [2] of 21.1%.
`COc1ccccc1N1CCN(CCCCOc2cccc(Cn3ncnn3)c2)CC1` [Example 8, 1-(2-methoxy-phenyl)-4-[4-(3-tetrazol-2-ylmethyl-phenoxy)-butyl]-piperazine hydrochloride] came in with an inhibition at 0.01 µM in test [1] of 81.6%. The same molecule had an inhibition in vivo at 1 mg/kg in the test on mice [2] of 19.6%.
Take `CNCCC(Oc1ccc(C(F)(F)F)cc1)c1ccccc1` (centres unmarked) [Fluxetine, reference compound]: in the test on mice [2], the “% reduction” value is reported as 49. at 30 mg/kg, po %.
The molecule `COc1ccccc1N1CCN(CCCCOc2ccc(CCn3nccn3)cc2)CC1` [Example 49, 1-(2-methoxy-phenyl)-4-{4-[4-(2-[1,2,3]triazol-2-yl-ethyl)-phenoxy]-butyl}-piperazine] yielded an inhibition at 0.01 µM in test [1] of 45%. In addition, testing at 1 mg/kg with mice [2] gave an inhibition in vivo of 34.3%.
In test [1], `COc1ccccc1N1CCN(CCCCOc2ccc(Cn3cncn3)cc2)CC1` [Example 2, 1-(2-methoxy-phenyl)-4-[4-(4-[1,2,4]triazol-1-ylmethyl-phenoxy)-butyl]-piperazine] gave an inhibition at 0.01 µM of 80.3%. The same molecule gave an inhibition in vivo at 3 mg/kg in the test on mice [3] of 93.3%.
For `O=C1CC2(CCCC2)CC(=O)N1CCCCN1CCN(c2ncccn2)CC1` [Buspirone, reference compound], the inhibition in vivo at 20 mg/kg with mice [3] (20 mg/kg) is 56%.
`COc1ccccc1N1CCN(CCCCOc2cccc(Cn3nccn3)c2)CC1` [Example 24, 1-(2-methoxy-phenyl)-4-[4-(3-[1,2,3]triazol-2-ylmethyl-phenoxy)-butyl]-piperazine] displayed an inhibition at 0.01 µM in test [1] of 51.6%. In the test on mice [3], the inhibition in vivo at 3 mg/kg is 62.6%.
Regarding `CN(C)Cc1ccc(OCCCCN2CCN(c3cccc(Cl)c3Cl)CC2)cc1` [Example 39, (4-{4-[4-(2,3-dichloro-phenyl)-piperazin-1-yl]-butoxy}-benzyl)-dimethyl-amine], in test [1], the inhibition at 0.01 µM is 52.9%. In addition, in the test with mice [2], testing at 1 mg/kg gave an inhibition in vivo of 30.4%.
`COc1ccccc1N1CCN(CCCCOc2ccc(CN3CCCCC3)cc2)CC1` [Example 20, 1-(2-methoxy-phenyl)-4-[4-(4-piperidin-1-ylmethyl-phenoxy)-butyl]-piperazine] returned an inhibition at 0.01 µM in test [1] of 68.5%. The molecule further had an inhibition in vivo at 7.5 mg/kg with mice [3] of 27%.
In turn, `Clc1cccc(N2CCN(CCCCOc3ccc(Cn4ncnn4)cc3)CC2)c1Cl` [Example 36, 1-(2,3-dichloro-phenyl)-4-[4-(4-tetrazol-2-ylmethyl-phenoxy)-butyl]-piperazine] came in with an inhibition at 0.01 µM in test [1] of 28.1%. Besides, 3 mg/kg produced 25.3% inhibition in vivo in the test with mice [3].
`COc1ccccc1N1CCN(CCCCOc2ccc(CNc3ccccc3)cc2)CC1` [Example 21, (4-{4-[4-(2-methoxy-phenyl)-piperazin-1-yl]-butoxy}-benzyl)-phenyl-amine] gave an inhibition at 0.01 µM in test [1] of 38.2%. The molecule further showed an inhibition in vivo at 3 mg/kg in the test on mice [3] of 29.9%.
In turn, `CN1CCN(Cc2ccc(OCCCCN3CCN(c4cccc(Cl)c4Cl)CC3)cc2)CC1` [Example 41] displayed an inhibition at 0.01 µM in test [1] of 82.1%. This molecule came in with an inhibition in vivo at 1 mg/kg in the test with mice [2] of 14.1%.
In test [1], `COc1ccccc1N1CCN(CCCCOc2ccc(Cn3ccnc3)cc2)CC1` [Example 1, 1-[4-(4-imidazol-1-ylmethyl-phenoxy)-butyl]-4-(2-methoxy-phenyl)-piperazine] displayed an inhibition at 0.01 µM of 83.1%. This molecule returned an inhibition in vivo at 3 mg/kg in the test on mice [3] of 28.7%.
For the molecule `COc1ccccc1N1CCN(CCCCOc2cccc(CN(C)C)c2)CC1` [Example 28, (3-{4-[4-(2-methoxy-phenyl)-piperazin-1-yl]-butoxy}-benzyl)-dimethyl-amine], the inhibition at 0.01 µM in test [1] worked out at 13.5%. This molecule also registered an inhibition in vivo at 3 mg/kg with mice [3] of 24.6%.
`CN(C)CCC[C@@]1(c2ccc(F)cc2)OCc2cc(C#N)ccc21` [Estalopram, reference compound]: in the test on mice [2], the “% reduction” value is recorded as 47, at 30 mg/kg, po %.
`COc1ccccc1N1CCN(CCCCOc2ccc(CCn3cnnn3)cc2)CC1` [Example 52, 1-(2-methoxy-phenyl)-4-{4-[4-(2-tetrazol-1-yl-ethyl)-phenoxy]-butyl}-piperazine] showed an inhibition at 0.01 µM in test [1] of 62%. The inhibition in vivo at 1 mg/kg in the test on mice [2] came out at 26.4%.
Molecule `COc1ccccc1N1CCN(CCCCOc2ccc(Cn3nnnc3C)cc2)CC1` [Example 18, 1-(2-methoxy-phenyl)-4-{4-[4-(5-methyl-tetrazol-1-ylmethyl)-phenoxy]-butyl}-piperazine] showed an inhibition at 0.01 µM in test [1] of 69.5%. Also, the inhibition in vivo at 1 mg/kg in the test with mice [2] stood at 14.7%.
As to `COc1ccccc1N1CCN(CCCCOc2ccc(CCn3nnc(C)n3)cc2)CC1` [Example 54, 1-(2-Methoxy-phenyl)-4-(4-{4-[2-(5-methyl-tetrazol-2-yl)-ethyl]-phenoxy}-butyl)-piperazine], in test [1], the inhibition at 0.01 µM is 71%. In the test on mice [2], the inhibition in vivo at 1 mg/kg was determined as 31.8%.
